Where two headings read alike, the source gives them in different places.
Assays:
human MER (528-end) = human MER (528-end) (Homo sapiens (Human), UniProt Q12866); experiment: HTRF Kinase Activity Biochemical Assay (KinEASE-TK); conditions: 10 uM ATP
In short: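 Activity read-out is the HTRF ratio (665 nm over 620 nm emission, ×10,000; excitation 340 nm) after 1 h detection with 0.375 nM Eu3+-cryptate anti-TK antibody plus 0.062 uM SA-XL665. Preceding kinase step: human MER (528-end), biotinylated TK substrate, 1 h, room temperature.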

[1] = biological target: BCR fusion to kinase domain of MerTK (Ba/F3-MerTK) (Homo sapiens, UniProt Q12866); experiment: In Cell TAM Kinase Assay Using BaF3 Cellular System; assay type: cell-based, murine; conditions: Ba/F3 BCR-kinase fusion proliferation, 72 hours, Cell Titer Glo, kinase not given
Sequence of BCR fusion to kinase domain of MerTK (Ba/F3-MerTK) (Q12866 21-999 limits assumed, stated change not applied): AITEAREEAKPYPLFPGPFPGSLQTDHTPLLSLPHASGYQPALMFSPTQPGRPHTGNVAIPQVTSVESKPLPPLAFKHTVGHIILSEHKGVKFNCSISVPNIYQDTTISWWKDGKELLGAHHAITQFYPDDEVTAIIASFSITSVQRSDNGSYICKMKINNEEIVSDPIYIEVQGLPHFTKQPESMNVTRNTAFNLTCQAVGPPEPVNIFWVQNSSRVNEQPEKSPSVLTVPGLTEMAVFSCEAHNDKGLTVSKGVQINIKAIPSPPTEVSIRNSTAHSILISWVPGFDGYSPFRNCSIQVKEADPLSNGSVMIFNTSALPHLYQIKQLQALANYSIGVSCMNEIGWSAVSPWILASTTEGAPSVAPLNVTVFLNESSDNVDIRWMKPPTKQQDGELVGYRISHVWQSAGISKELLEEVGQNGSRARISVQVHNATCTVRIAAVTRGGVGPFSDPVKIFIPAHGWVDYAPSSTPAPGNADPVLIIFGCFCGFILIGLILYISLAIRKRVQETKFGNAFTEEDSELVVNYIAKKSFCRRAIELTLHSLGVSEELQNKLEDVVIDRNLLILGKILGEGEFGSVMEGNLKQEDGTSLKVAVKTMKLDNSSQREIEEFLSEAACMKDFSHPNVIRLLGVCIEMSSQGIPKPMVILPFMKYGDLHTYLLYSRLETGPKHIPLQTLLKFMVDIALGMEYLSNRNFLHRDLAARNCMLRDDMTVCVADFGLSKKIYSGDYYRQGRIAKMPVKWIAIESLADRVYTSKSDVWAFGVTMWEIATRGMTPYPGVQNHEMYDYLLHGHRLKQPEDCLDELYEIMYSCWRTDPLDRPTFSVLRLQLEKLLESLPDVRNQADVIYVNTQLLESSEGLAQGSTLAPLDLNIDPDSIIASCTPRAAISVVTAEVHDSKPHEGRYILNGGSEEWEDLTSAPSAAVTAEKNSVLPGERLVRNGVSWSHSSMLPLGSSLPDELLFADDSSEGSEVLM
Excerpt: Three Ba/F3 cell lines (a murine IL-3 dependent pro-B cell line) expressing BCR fusions to the kinase domains of either MerTK (Ba/F3-MerTK), Axl (Ba/F3-Axl), or Tyro3 (Ba/F3-Tyro3) were purchased from Advanced Cellular Dynamics. The IL-3 independence of all 3 cell lines was confirmed. After thawing, the 3 Ba/F3 cell lines were split and maintained in cell culture media, which consisted of RPMI-1640-HEPES (Thermo-Cat #22400-089) with 1× Glutamax (Thermo-Cat #35050-061) and 10% FBS (Sigma-Cat #F4135 (500 ml), at a cell density range of 0.05×10^6−1×10^6 cells/mL 4 days before used in the routine screen. Compound plates were prepared using Nunc™ white 384-well optical bottom plates (ThermoFisher, USA) with compound in 25 nL dimethyl sulfoxide in each well. For routine assays, each of the 3 Ba/F3 cell lines was seeded at 1,000 cells per well with 25 µL of cell culture media directly into 384-well compound plates and incubated for 72 hours. Cell proliferation was then measured by adding 25 μL of Cell Titer Glo 2.0 (Promega, USA). After incubating with Cell Titer Glo at room temperature for 30 mins, the luminescence intensity, which quantifies the cell viability, was measured using an Envision™ plate reader (PerkinElmer, USA). […] In the presence of IL-3, the proliferation of the Ba/F3-Tyro3 cells is no longer dependent on the Tyro3 kinase activity.

Sequence of human MER (528-end) (Q12866 528-999 limits assumed): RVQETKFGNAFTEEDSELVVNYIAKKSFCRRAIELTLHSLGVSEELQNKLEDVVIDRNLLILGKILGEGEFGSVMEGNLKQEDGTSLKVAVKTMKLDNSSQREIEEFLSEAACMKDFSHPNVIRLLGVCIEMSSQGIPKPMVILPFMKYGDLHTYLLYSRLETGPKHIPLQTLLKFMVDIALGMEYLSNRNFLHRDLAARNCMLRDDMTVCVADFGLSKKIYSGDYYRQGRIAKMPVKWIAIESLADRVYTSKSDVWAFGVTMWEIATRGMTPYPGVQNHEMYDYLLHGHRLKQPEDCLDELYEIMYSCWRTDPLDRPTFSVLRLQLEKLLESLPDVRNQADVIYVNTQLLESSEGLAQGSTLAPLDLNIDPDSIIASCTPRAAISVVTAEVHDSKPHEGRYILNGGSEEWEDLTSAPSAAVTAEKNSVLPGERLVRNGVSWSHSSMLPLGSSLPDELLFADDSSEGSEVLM

| Compound | IC50 (human MER (528-end)) [nM] | IC50 ([1]; read-out: IC50) [nM] | IC50 [1] [nM] |
| --- | --- | --- | --- |
| CN1CCN(Cc2ccc(-c3cnc(N)c(C(=O)N[C@@H]4CCN(C(=O)c5ccc(-c6ccccc6)cc5)C4)c3)cc2)CC1 [Example 567, (R)—N-(1-([1,1′-biphenyl]-4-carbonyl)pyrrolidin-3-yl)-2-amino-5-(4-((4-methylpiperazin-1-yl)methyl)phenyl)nicotinamide] | 10 to 100 | > 1000 | – |
| Nc1ncc(-c2ccc(N3CCOCC3)nc2)cc1C(=O)N[C@@H]1CCN(C(=O)c2ccc(-c3ccc(F)cc3Cl)cc2)C1 [Example 584, (R)-6-amino-N-(1-(2′-chloro-4′-fluoro-[1,1′-biphenyl]-4-carbonyl)pyrrolidin-3-yl)-6′-morpholino-[3,3′-bipyridine]-5-carboxamide] | 10 to 100 | > 1000 | – |
| Nc1ncc(-c2cnn(Cc3cccnc3)c2)cc1C(=O)N[C@@H]1CCN(C(=O)c2ccc(-c3ccc(F)cc3Cl)cc2)C1 [Example 586, (R)-2-amino-N-(1-(2′-chloro-4′-fluoro-[1,1′-biphenyl]-4-carbonyl)pyrrolidin-3-yl)-5-(1-(pyridin-3-ylmethyl)-1H-pyrazol-4-yl)nicotinamide] | 10 to 100 | 500 to 1000 | – |
| CN1CCN(C(=O)c2ccc(-c3cnc(N)c(C(=O)N[C@@H]4CCN(C(=O)c5ccc(-c6ccccc6Cl)cc5)C4)c3)cc2)CC1 [Example 588, (R)-2-amino-N-(1-(2′-chloro-[1,1′-biphenyl]-4-carbonyl)pyrrolidin-3-yl)-5-(4-(4-methylpiperazine-1-carbonyl)phenyl)nicotinamide] | 10 to 100 | > 1000 | – |
| Nc1ncc(-c2ccc(C(=O)N3CCOCC3)cc2)cc1C(=O)N[C@@H]1CCN(C(=O)c2ccc(-c3ccccc3Cl)cc2)C1 [Example 590, (R)-2-amino-N-(1-(2′-chloro-[1,1′-biphenyl]-4-carbonyl)pyrrolidin-3-yl)-5-(4-(morpholine-4-carbonyl)phenyl)nicotinamide] | 10 to 100 | > 1000 | – |
| Nc1ncc(-c2ccc(C(=O)NC3CCOCC3)cc2)cc1C(=O)N[C@@H]1CCN(C(=O)c2ccc(-c3ccccc3Cl)cc2)C1 [Example 593, (R)-2-amino-N-(1-(2′-chloro-[1,1′-biphenyl]-4-carbonyl)pyrrolidin-3-yl)-5-(4-((tetrahydro-2H-pyran-4-yl)carbamoyl)phenyl)nicotinamide] | 10 to 100 | > 1000 | – |
| Cn1cc(-c2cnc(N)c(C(=O)N[C@@H]3CCN(C(=O)c4ccc(-c5ccc(Oc6ccc(CN)cc6)cc5)cc4)C3)c2)cn1 [Example 634, (R)-2-amino-N-(1-(4′-(4-(aminomethyl)phenoxy)-[1,1′-biphenyl]-4-carbonyl)pyrrolidin-3-yl)-5-(1-methyl-1H-pyrazol-4-yl)nicotinamide] | < 10 | 500 to 1000 | – |
| Cn1cc(-c2cnc(N)c(C(=O)N[C@@H]3CCN(C(=O)c4ccc(-c5ccc(Oc6ccc(CO)cc6)cc5)cc4)C3)c2)cn1 [Example 635, (R)-2-amino-N-(1-(4′-(4-(hydroxymethyl)phenoxy)-[1,1′-biphenyl]-4-carbonyl)pyrrolidin-3-yl)-5-(1-methyl-1H-pyrazol-4-yl)nicotinamide] | 10 to 100 | 100 to 500 | – |
| CN(C)Cc1ccc(Oc2ccc(-c3ccc(C(=O)N4CC[C@@H](NC(=O)c5cc(-c6cnn(C)c6)cnc5N)C4)cc3)cc2)cc1 [Example 636, (R)-2-amino-N-(1-(4′-(4-((dimethylamino)methyl)phenoxy)-[1,1′-biphenyl]-4-carbonyl)pyrrolidin-3-yl)-5-(1-methyl-1H-pyrazol-4-yl)nicotinamide] | 10 to 100 | 100 to 500 | – |
| CN1CCC(Cc2ccc(-c3ccc(C(=O)N4CC[C@@H](NC(=O)c5cc(-c6cnn(C)c6)cnc5N)C4)cc3)cc2)CC1 [Example 643, (R)-2-amino-5-(1-methyl-1H-pyrazol-4-yl)-N-(1-(4′-((1-methylpiperidin-4-yl)methyl)-[1,1′-biphenyl]-4-carbonyl)pyrrolidin-3-yl)nicotinamide] | 100 to 1000 | > 1000 | – |
| CN1CCC(N(C)c2ccc3cc(C(=O)N4CC[C@@H](NC(=O)c5cc(-c6cnn(C)c6)cnc5N)C4)ccc3c2)CC1 [Example 644, (R)-2-amino-N-(1-(6-(methyl(1-methylpiperidin-4-yl)amino)-2-naphthoyl)pyrrolidin-3-yl)-5-(1-methyl-1H-pyrazol-4-yl)nicotinamide] | 10 to 100 | 100 to 500 | – |
| Cc1cccc(-c2ccc(C(=O)N3CC[C@@H](NC(=O)c4cc(-c5cnn(C)c5)cnc4N)C3)cc2)c1 [Example 656, (R)-2-amino-5-(1-methyl-1H-pyrazol-4-yl)-N-(1-(3′-methyl-[1,1′-biphenyl]-4-carbonyl)pyrrolidin-3-yl)nicotinamide] | 10 to 100 | < 100 | – |
| CCc1cccc(-c2ccc(C(=O)N3CC[C@@H](NC(=O)c4cc(-c5cnn(C)c5)cnc4N)C3)cc2)c1 [Example 657, (R)-2-amino-N-(1-(3′-ethyl-[1,1′-biphenyl]-4-carbonyl)pyrrolidin-3-yl)-5-(1-methyl-1H-pyrazol-4-yl)nicotinamide] | 10 to 100 | 100 to 500 | – |
| CC(C)c1cccc(-c2ccc(C(=O)N3CC[C@@H](NC(=O)c4cc(-c5cnn(C)c5)cnc4N)C3)cc2)c1 [Example 658, (R)-2-amino-N-(1-(3′-isopropyl-[1,1′-biphenyl]-4-carbonyl)pyrrolidin-3-yl)-5-(1-methyl-1H-pyrazol-4-yl)nicotinamide] | 100 to 1000 | 500 to 1000 | – |
| COc1ccc(-c2ccc(C(=O)N3CC[C@@H](NC(=O)c4cc(-c5cnn(C)c5)cnc4N)C3)cc2)cc1OC [Example 659, (R)-2-amino-N-(1-(3′,4′-dimethoxy-[1,1′-biphenyl]-4-carbonyl)pyrrolidin-3-yl)-5-(1-methyl-1H-pyrazol-4-yl)nicotinamide] | 100 to 1000 | > 1000 | – |
| Cn1cc(-c2cnc(N)c(C(=O)N[C@@H]3CCN(C(=O)c4ccc(-c5ccc(Cl)c(F)c5)cc4)C3)c2)cn1 [Example 661, (R)-2-amino-N-(1-(4′-chloro-3′-fluoro-[1,1′-biphenyl]-4-carbonyl)pyrrolidin-3-yl)-5-(1-methyl-1H-pyrazol-4-yl)nicotinamide] | 10 to 100 | 500 to 1000 | – |
| Cn1cc(-c2cnc(N)c(C(=O)N[C@@H]3CCN(C(=O)c4ccc(-c5cccc(F)c5Cl)cc4)C3)c2)cn1 [Example 673, (R)-2-amino-N-(1-(2′-chloro-3′-fluoro-[1,1′-biphenyl]-4-carbonyl)pyrrolidin-3-yl)-5-(1-methyl-1H-pyrazol-4-yl)nicotinamide] | 10 to 100 | 500 to 1000 | – |
| Cn1cc(-c2cnc(N)c(C(=O)N[C@@H]3CCN(C(=O)c4ccc(-c5ccc(C(=O)N6CCC(=O)CC6)cc5)cc4)C3)c2)cn1 [Example 679, (R)-2-amino-5-(1-methyl-1H-pyrazol-4-yl)-N-(1-(4′-(4-oxopiperidine-1-carbonyl)-[1,1′-biphenyl]-4-carbonyl)pyrrolidin-3-yl)nicotinamide] | > 1000 | – | > 1000 |
| Cn1cc(-c2cnc(N)c(C(=O)N[C@@H]3CCN(C(=O)c4cc5ccccc5n4C)C3)c2)cn1 [Example 695, (R)-2-amino-N-(1-(1-methyl-1H-indole-2-carbonyl)pyrrolidin-3-yl)-5-(1-methyl-1H-pyrazol-4-yl)nicotinamide] | > 1000 | > 1000 | – |
| Cn1cc(-c2cnc(N)c(C(=O)N[C@@H]3CCN(C(=O)c4cc5cc(F)ccc5[nH]4)C3)c2)cn1 [Example 696, (R)-2-amino-N-(1-(5-fluoro-1H-indole-2-carbonyl)pyrrolidin-3-yl)-5-(1-methyl-1H-pyrazol-4-yl)nicotinamide] | > 1000 | > 1000 | – |
| Cn1cc(-c2cnc(N)c(C(=O)N[C@@H]3CCN(C(=O)c4cc5ccccc5[nH]4)C3)c2)cn1 [Example 697, (R)—N-(1-(1H-indole-2-carbonyl)pyrrolidin-3-yl)-2-amino-5-(1-methyl-1H-pyrazol-4-yl)nicotinamide] | > 1000 | > 1000 | – |
| Cc1[nH]c2cc(C(=O)N3CC[C@@H](NC(=O)c4cc(-c5cnn(C)c5)cnc4N)C3)ccc2c1C [Example 698, (R)-2-amino-N-(1-(2,3-dimethyl-1H-indole-6-carbonyl)pyrrolidin-3-yl)-5-(1-methyl-1H-pyrazol-4-yl)nicotinamide] | 100 to 1000 | > 1000 | – |
| Cn1cc(-c2cnc(N)c(C(=O)N[C@@H]3CCN(C(=O)c4ccc5cccnc5n4)C3)c2)cn1 [Example 699, (R)—N-(1-(1,8-naphthyridine-2-carbonyl)pyrrolidin-3-yl)-2-amino-5-(1-methyl-1H-pyrazol-4-yl)nicotinamide] | > 1000 | > 1000 | – |
| Cn1cc(-c2cnc(N)c(C(=O)N[C@@H]3CCN(C(=O)c4ccc5cnccc5n4)C3)c2)cn1 [Example 700, (R)—N-(1-(1,6-naphthyridine-2-carbonyl)pyrrolidin-3-yl)-2-amino-5-(1-methyl-1H-pyrazol-4-yl)nicotinamide] | > 1000 | > 1000 | – |

— US12378224B2 (Dong-A Socio Holdings Co., Ltd., priority 2016, dated 2025)
